Target: KRasG12C (M1-K169, biotinylated on the N-terminus) (Homo sapiens (Human), UniProt P01116, G12C)
Assay: Covalent competition assay: scintillation proximity assay (SPA) quantifying covalent modification of KRASG12C
Type: binding
Details: competition with radiolabeled covalent probe (Compound B/Compound A), 2 hours incubation, 10 nM KRasG12C
Method in brief: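 Scintillation proximity readout after streptavidin bead capture (30 min) of biotinylated KRasG12C(M1-K169):GDP, 10 nM final, which was covalently labelled over 2 h by 25 nM radio-probe plus 475 nM cold probe unless blocked by compound.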

| SMILES | IC50 [nM] |
| --- | --- |
| C=CC(=O)N1CC2(CC(n3nc(N4CCN(C5CCOCC5)C[C@]4(C)CCOC)c(-c4c(Cl)c(C)cc5[nH]ncc45)c3C)C2)C1 (single isomer, unassigned) [Example 87b] | 1500 |
| C=CC(=O)N1CC2(CC(n3nc(N4CCCC4(C)C)c(-c4c(Cl)c(C)cc5[nH]ncc45)c3C)C2)C1 (single isomer, unassigned) [Example 88a, 1-(6-(4-(5-chloro-6-methyl-1H-indazol-4-yl)-3-(2,2-dimethylpyrrolidin-1-yl)-5-methyl-1H-pyrazol-1-yl)-2-azaspiro[3.3]heptan-2-yl)prop-2-en-1-one] | > 5000 |
| C=CC(=O)N1CC2(CC(n3nc(N4CCCC4(C)C)c(-c4c(Cl)c(C)cc5[nH]ncc45)c3C)C2)C1 (single isomer, unassigned) [Example 88b, 1-(6-(4-(5-chloro-6-methyl-1H-indazol-4-yl)-3-(2,2-dimethylpyrrolidin-1-yl)-5-methyl-1H-pyrazol-1-yl)-2-azaspiro[3.3]heptan-2-yl)prop-2-en-1-one] | 467 |
| C=CC(=O)N1CC2(CC(n3nc(N4CCN(C[C@@H]5COCCO5)C[C@]4(C)CC)c(-c4c(Cl)c(Cl)cc5[nH]ncc45)c3C)C2)C1 (single isomer, unassigned) [Example 89a] | 3400 |
| C=CC(=O)N1CC2(CC(n3nc(N4CCN(C5CCOCC5)C[C@]4(C)COC)c(-c4c(Cl)c(C)cc5[nH]nc(N)c45)c3C)C2)C1 (single isomer, unassigned) [Example 90b] | 558 |
| C=CC(=O)N1CC2(CC(n3nc(N4CCC5(CN(C6COC6)C5)CC4(C)C)c(-c4c(Cl)c(C)cc5[nH]ncc45)c3C)C2)C1 (single isomer, unassigned) [Example 91a, 1-(6-(4-(5-chloro-6-methyl-1H-indazol-4-yl)-3-(6,6-dimethyl-2-(oxetan-3-yl)-2,7-diazaspiro[3.5]nonan-7-yl)-5-methyl-1H-pyrazol-1-yl)-2-azaspiro[3.3]heptan-2-yl)prop-2-en-1-one] | 2900 |
| C=CC(=O)N1CC2(CC(n3nc(N4CCC5(CN(C6COC6)C5)CC4(C)C)c(-c4c(Cl)c(Cl)cc5[nH]ncc45)c3C)C2)C1 (single isomer, unassigned) [Example 92a, 1-(6-(4-(5,6-dichloro-1H-indazol-4-yl)-3-(6,6-dimethyl-2-(oxetan-3-yl)-2,7-diazaspiro[3.5]nonan-7-yl)-5-methyl-1H-pyrazol-1-yl)-2-azaspiro[3.3]heptan-2-yl)prop-2-en-1-one] | 2100 |
| C=CC(=O)N1CC2(CC(n3nc(N4CCC5(CN(C6COC6)C5)CC45CCC5)c(-c4c(Cl)c(C)cc5[nH]ncc45)c3C)C2)C1 (single isomer, unassigned) [Example 93a, 1-(6-(4-(5-chloro-6-methyl-1H-indazol-4-yl)-5-methyl-3-(2-(oxetan-3-yl)-2,10-diazadispiro[3.1.3^6.3^4]dodecan-10-yl)-1H-pyrazol-1-yl)-2-azaspiro[3.3]heptan-2-yl)prop-2-en-1-one] | > 5000 |
| C=CC(=O)N1CC2(CC(n3nc(N4CCN(C(C)=O)C[C@@H]4CC)c(-c4c(Cl)c(C)cc5[nH]ncc45)c3C)C2)C1 (single isomer, unassigned) [Example 94a] | > 50000 |
| C=CC(=O)N1CC2(CC(n3nc(N4CCN(C(C)=O)C[C@@H]4C(C)C)c(-c4c(Cl)c(C)cc5[nH]ncc45)c3C)C2)C1 (single isomer, unassigned) [Example 95a] | > 5000 |
| C=CC(=O)N1CC2(CC(n3nc(N4CCN(C(C)=O)C[C@@H]4C(C)C)c(-c4c(Cl)c(C)cc5[nH]ncc45)c3C)C2)C1 (single isomer, unassigned) [Example 95b] | 373 |
| C=CC(=O)N1CC2(CC(n3nc(N4CCC(N(C)C(=O)COC)CC4(C)C)c(-c4c(Cl)c(C)cc5[nH]ncc45)c3C)C2)C1 (single isomer, unassigned) [Example 96a, N-(1-(1-(2-acryloyl-2-azaspiro[3.3]heptan-6-yl)-4-(5-chloro-6-methyl-1H-indazol-4-yl)-5-methyl-1H-pyrazol-3-yl)-2,2-dimethylpiperidin-4-yl)-2-methoxy-N-methylacetamide] | > 5000 |
| C=CC(=O)N1CC2(CC(n3nc(N4CCC(N(C)C(=O)COC)CC4(C)C)c(-c4c(Cl)c(C)cc5[nH]ncc45)c3C)C2)C1 (single isomer, unassigned) [Example 97a, N-(1-(1-(2-acryloyl-2-azaspiro[3.3]heptan-6-yl)-4-(5-chloro-6-methyl-1H-indazol-4-yl)-5-methyl-1H-pyrazol-3-yl)-2,2-dimethylpiperidin-4-yl)-2-methoxy-N-methylacetamide] | 300 |
| C=CC(=O)N1CC2(CC(n3nc(N4CCC(N(C)C(=O)COC)CC4(C)C)c(-c4c(Cl)c(C)cc5[nH]ncc45)c3C)C2)C1 (single isomer, unassigned) [Example 97b, N-(1-(1-(2-acryloyl-2-azaspiro[3.3]heptan-6-yl)-4-(5-chloro-6-methyl-1H-indazol-4-yl)-5-methyl-1H-pyrazol-3-yl)-2,2-dimethylpiperidin-4-yl)-2-methoxy-N-methylacetamide] | 1700 |
| C=CC(=O)N1CC2(CC(n3nc(N4CCC(C(=O)N(C)C)CC4(C)C)c(-c4c(Cl)c(C)cc5[nH]ncc45)c3C)C2)C1 (single isomer, unassigned) [Example 99a, 1-(1-(2-acryloyl-2-azaspiro[3.3]heptan-6-yl)-4-(5-chloro-6-methyl-1H-indazol-4-yl)-5-methyl-1H-pyrazol-3-yl)-N,N,2,2-tetramethylpiperidine-4-carboxamide] | 2900 |
| C=CC(=O)N1CC2(CC(n3nc(N4CCN(Cc5ccccc5)CC45CCC5)c(-c4c(Cl)c(C)cc5[nH]ncc45)c3C)C2)C1 (single isomer, unassigned) [Example 100a, 1-(6-(3-(8-benzyl-5,8-diazaspiro[3.5]nonan-5-yl)-4-(5-chloro-6-methyl-1H-indazol-4-yl)-5-methyl-1H-pyrazol-1-yl)-2-azaspiro[3.3]heptan-2-yl)prop-2-en-1-one] | > 5000 |
| C=CC(=O)N1CC2(CC(n3nc(N4CCN(Cc5ccccc5)CC45CCC5)c(-c4c(Cl)c(C)cc5[nH]ncc45)c3C)C2)C1 (single isomer, unassigned) [Example 100b, 1-(6-(3-(8-benzyl-5,8-diazaspiro[3.5]nonan-5-yl)-4-(5-chloro-6-methyl-1H-indazol-4-yl)-5-methyl-1H-pyrazol-1-yl)-2-azaspiro[3.3]heptan-2-yl)prop-2-en-1-one] | 86 |

These reach a lower IC50. Values come first.

| IC50 [nM] | SMILES |
| --- | --- |
| 13 | C=CC(=O)N1CC2(CC(n3nc(N4CCN(C5CCOCC5)C[C@]4(C)CCOC)c(-c4c(Cl)c(C)cc5[nH]ncc45)c3C)C2)C1 (single isomer, unassigned) [Example 87a] |
| < 5 | C=CC(=O)N1CC2(CC(n3nc(N4CCN(C[C@@H]5COCCO5)C[C@]4(C)CC)c(-c4c(Cl)c(Cl)cc5[nH]ncc45)c3C)C2)C1 (single isomer, unassigned) [Example 89b] |
| 23 | C=CC(=O)N1CC2(CC(n3nc(N4CCN(C5CCOCC5)C[C@]4(C)COC)c(-c4c(Cl)c(C)cc5[nH]nc(N)c45)c3C)C2)C1 (single isomer, unassigned) [Example 90a] |
| 13 | C=CC(=O)N1CC2(CC(n3nc(N4CCC5(CN(C6COC6)C5)CC4(C)C)c(-c4c(Cl)c(C)cc5[nH]ncc45)c3C)C2)C1 (single isomer, unassigned) [Example 91b, 1-(6-(4-(5-chloro-6-methyl-1H-indazol-4-yl)-3-(6,6-dimethyl-2-(oxetan-3-yl)-2,7-diazaspiro[3.5]nonan-7-yl)-5-methyl-1H-pyrazol-1-yl)-2-azaspiro[3.3]heptan-2-yl)prop-2-en-1-one] |
| 7 | C=CC(=O)N1CC2(CC(n3nc(N4CCC5(CN(C6COC6)C5)CC4(C)C)c(-c4c(Cl)c(Cl)cc5[nH]ncc45)c3C)C2)C1 (single isomer, unassigned) [Example 92b, 1-(6-(4-(5,6-dichloro-1H-indazol-4-yl)-3-(6,6-dimethyl-2-(oxetan-3-yl)-2,7-diazaspiro[3.5]nonan-7-yl)-5-methyl-1H-pyrazol-1-yl)-2-azaspiro[3.3]heptan-2-yl)prop-2-en-1-one] |
| 12 | C=CC(=O)N1CC2(CC(n3nc(N4CCC5(CN(C6COC6)C5)CC45CCC5)c(-c4c(Cl)c(C)cc5[nH]ncc45)c3C)C2)C1 (single isomer, unassigned) [Example 93b, 1-(6-(4-(5-chloro-6-methyl-1H-indazol-4-yl)-5-methyl-3-(2-(oxetan-3-yl)-2,10-diazadispiro[3.1.3^6.3^4]dodecan-10-yl)-1H-pyrazol-1-yl)-2-azaspiro[3.3]heptan-2-yl)prop-2-en-1-one] |
| 64 | C=CC(=O)N1CC2(CC(n3nc(N4CCN(C(C)=O)C[C@@H]4CC)c(-c4c(Cl)c(C)cc5[nH]ncc45)c3C)C2)C1 (single isomer, unassigned) [Example 94b] |
| 11 | C=CC(=O)N1CC2(CC(n3nc(N4CCC(N(C)C(=O)COC)CC4(C)C)c(-c4c(Cl)c(C)cc5[nH]ncc45)c3C)C2)C1 (single isomer, unassigned) [Example 96b, N-(1-(1-(2-acryloyl-2-azaspiro[3.3]heptan-6-yl)-4-(5-chloro-6-methyl-1H-indazol-4-yl)-5-methyl-1H-pyrazol-3-yl)-2,2-dimethylpiperidin-4-yl)-2-methoxy-N-methylacetamide] |
| 19 | C=CC(=O)N1CC2(CC(n3nc(N4CCC(C(=O)N(C)C)CC4(C)C)c(-c4c(Cl)c(C)cc5[nH]ncc45)c3C)C2)C1 (single isomer, unassigned) [Example 98b, 1-(1-(2-acryloyl-2-azaspiro[3.3]heptan-6-yl)-4-(5-chloro-6-methyl-1H-indazol-4-yl)-5-methyl-1H-pyrazol-3-yl)-N,N,2,2-tetramethylpiperidine-4-carboxamide] |

Source: US20240317721A1, “PYRAZOLYL DERIVATIVES AS INHIBITORS OF THE KRAS MUTANT PROTEIN” (NOVARTIS AG, priority 2021, published 2024)
